Experimental data reported in patent US5912224A, “Methods and compositions for enhancing cellular response to TGF-β ligands” (priority 1997, dated 1999).

Assays:
[1] = tested on: FKBP12 (T7 tagged) binding to TGF-β type I receptor (R4); test: R4/FKBP12 co-immunoprecipitation competition in transfected COS cells; type: cell-based; conditions: for block of R4/FKBP12 co-immunoprecipitation: 100 nM derivative, COS cells transfected with R4 and T7 tagged FKBP12
Description: For testing FKBP12 binding to ligand-free TGF-β type I receptor (either wild type or mutants) by co-immunoprecipitations, COS1 cells grown in P-100 dishes were transfected with 4 μg of T7 tagged FKBP12 in pCMV8 and 6 μg of R4 (or mutant R4) in pCMV6 using the DEAE-dextran method. In the case of using metabolic labeling to detect co-precipitation of FKBP12 and R4, 40-44 hours after transfection COS1 cells were incubated for 4 hours with 50 μCi/ml [^35 S]-methionine in methionine-free media and lysed in lysis buffer (20 mM Tris-HCl [pH 7.4], 150 mM NaCl, 0.5% Triton X-100, 1 mM EDTA) in the presence of a mixture of protease inhibitors. Anti-T7 monoclonal antibody (5 μl) was added into 200 μl of cell lysates, incubated at 4° C. for 2 hours, absorbed with protein A sepharose beads, and washed three times with wash buffer (20 mM Tris-HCl [pH 7.4], 150 mM NaCl, 0.1% Triton X-100, 1 mM EDTA). Proteins were eluted from the sepharose beads using 2× SDS-PAGE denaturing sample buffer, separated on 15% SDS-PAGE. The gel was treated with Autofluor (National Diagnostic), dried and subjected to autoradiography for 48 hours. In the case of using Western blot to detect co-precipitated T7 tagged FKBP12, cell lysates were immunoprecipitated with 10 μl of VPN antiserum, which recognizes a juxtamembrane region of the TGF-β type I receptor (Franzen, P. et al., Cell 75:681-692 (1993)). The immunoprecipitates were separated on 15% SDS-PAGE, electrotransferred onto nitrocellulose membrane, blotted using anti-T7 monoclonal antibody, and detected by ECL (Amersham).
For testing the effect of non-functional FK506 derivatives (L685,818 from Merck Laboratories and 15-O-desmethyl-FK520 from Sandoz) on FKBP12 binding to R4, 2 hours after transfection COS1 cells were treated with the derivatives for […] and then labeled for 4 hours with 50 μCi/ml [^35 S]-methionine in methionine-free media 40-44 hours after transfection. Cells were then lysed and immunoprecipitation was carried out as described above. […]

Mullerian duct = test: Urogenital ridge organ culture assay (MIS-mediated Mullerian duct regression); design: species or system rat
Description: The organ culture assay was carried out as described previously (Donahoe, P. K. et al., J. Surg. Res. 23:141-148 (1977)). Briefly, urogenital ridges containing Wolffian and Mullerian ducts from 14.5 day female rat fetuses were maintained in CMRL media with 10% fetal calf serum, 100 units/ml penicillin, and 100 μg/ml streptomycin. To test the effect of the non-functional derivatives of FK506 (L685,818 or 15-O-desmethyl FK520) on Mullerian duct regression, the specimens were treated with the indicated doses of MIS in the presence or absence of the non-functional derivatives of FK506 and incubated at 37° C. in 5% CO2 and 95% air. After 72 hours, the specimens were fixed in formalin, dehydrated in an alcohol series, cleared in xylene, embedded in paraffin, cut in serial cross sections, stained with hematoxylin and eosin and graded for regression of the Mullerian duct as described (Donahoe, P. K. et al., J. Surg. Res. 23:141-148 (1977)).
Since FKBP12 binds to all known type I receptors, its inhibitory activity should therefore also be detected in the signaling events mediated by other TGF-β family members. Mullerian Inhibiting Substance (MIS) is a unique member of the TGF-β family known to be responsible for regression of the Mullerian duct in fetal males through an active apoptotic process (Jost, A., Arch. Anat. Micro. Morph. Exp. 36:271-315 (1947); Price, J. M. et al., Am. J. Anat. 149:353-376 (1977); Trelstad, R. L. et al., Devl. Bio. 92:27-40 (1982)). The activity of MIS in the regression of the Mullerian ducts can be measured directly in an organ culture assay (Donahoe, P. K. et al., J. Surg. Res. 23:141-148 (1977)). In this assay, urogenital ridges containing both the Wolffian duct and the Mullerian duct are isolated from fourteen and a half day female fetuses. […] When 1 μg MIS was added into the organ culture, grade 1.5 regression was observed, which histologically corresponds to a condensation of the mesenchymal cells surrounding a smaller and irregularly shaped Mullerian duct (FIG. 5, A, top panel). […] We further tested the effect of 1 μM 15-O-desmethyl-FK520 on the regression activities of different doses of MIS (FIG. 5, B).

Mv1Lu cells [2] = test: Transcriptional response assay (p3TP-lux luciferase reporter); type: cell-based, mink
Excerpt: Two TGF-β responsive mink lung epithelial cell lines Mv1Lu and L17, the latter being a highly transfectable clone of R1B lacking the functional type I receptor of TGF-β, were used in a transcriptional response employing a DEAE-dextran method (Bassing, C. et al., Science 263:87-89 (1994); Wrana, J. L. et al., Nature 370:341-47 (1994)). Briefly, cells grown to 50% confluency in 6-well plates were transiently transfected with the transcriptional response reporter construct p3TP-lux alone or together with different constructs of the type I receptor. Sixteen to twenty hours after transfection, cells were treated with TGF-β in 0.2% serum medium for 24 to 28 hours. For testing the effect of FK506 derivative 15-O-desmethyl FK520, cells were treated with the drug beginning two hours prior to the addition of TGF-β. Cell lysates were made and luciferase activity was measured in a luminometer. Each assay was carried out in duplicate or triplicate.
To distinguish between these possibilities, both 15-O-desmethyl-FK520 and L685,818 were used to test the role of FKBP12 in the signaling events mediated by TGF-β, and yielded very similar results; here we report the results from using 15-O-desmethyl-FK520. […]

Mv1Lu cells [3] = test: Growth inhibition assay; type: cell-based, mink; conditions: for growth inhibition, macrolide alone: each alone, added to Mv1Lu cells
Description: Growth Inhibition Assay Mv1Lu cells were seeded in 12-well plate at 3×10^4 cells/well and incubated overnight. Cells were treated with 15-O-demethyl FK520 for 2 hours and with TGF-β for 36 to 40 hours in the presence of the drug. Cells were trypsinized, and cell numbers were determined in a Coulter counter.
To distinguish between these possibilities, both 15-O-desmethyl-FK520 and L685,818 were used to test the role of FKBP12 in the signaling events mediated by TGF-β, and yielded very similar results; here we report the results from using 15-O-desmethyl-FK520. In the absence of 15-O-desmethyl-FK520, TGF-β elicits two cellular responses when added into the mink lung epithelial cell line Mv1Lu: the growth inhibition response, which can be detected by a decrease in cell number, and the gene activation response, which can be measured by an increase in the luciferase activities resulting from the activation of a transfected luciferase reporter gene regulated by a Plasminogen Activator Inhibitor (PAI) promotor (Wrana, J. L. et al., Cell 71:1003-1014 (1992)). […] Therefore, FKBP12 binding to the TGF-β type I receptor is not necessary, but is inhibitory to the type I receptor mediated signaling, and release of FKBP12 is not sufficient for complete activation of the downstream signaling events in the absence of TGF-β.

FKBP12 = FKBP12 (Homo sapiens, UniProt P62942); conditions: cited from earlier work
[4] = in vivo; cited from earlier work
[5] = molecular target: T1, FKBP12 binding to R4C (cytoplasmic domain of TGF-β type I receptor) (Rattus norvegicus, UniProt Q62658); conditions: excess macrolide, yeast cells; cited from earlier work
T1 construct: host or cells: yeast (two-hybrid)

[6] = tested on: FKBP12 mutant D37G (mFKBP12); conditions: point mutation within the macrolide binding site; cited from earlier work
[7] = molecular target: FKBP12 mutant (G89P, 190K) (Homo sapiens, UniProt P62942, G90P/I91K); conditions: mutations within the 80s loop; cited from earlier work
[8] = macrolide up to 1 μM together with TGF-β 15 pM

Sequence of FKBP12 (P62942 whole entry): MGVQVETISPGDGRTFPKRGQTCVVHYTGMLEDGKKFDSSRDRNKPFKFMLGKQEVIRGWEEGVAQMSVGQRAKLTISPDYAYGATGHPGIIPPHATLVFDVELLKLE
T1 sequence (Q62658 whole entry, the tested form may be a part): as the sequence (P62942 whole entry) above, with P10S, M50T, T76I counted along it
Sequence of FKBP12 mutant (G89P, 190K) (P62942 2-108 G90P/I91K limits assumed): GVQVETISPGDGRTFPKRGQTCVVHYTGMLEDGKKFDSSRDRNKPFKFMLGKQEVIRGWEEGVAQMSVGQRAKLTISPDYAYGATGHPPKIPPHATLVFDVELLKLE

## CC[C@@H]1/C=C(\C)C[C@H](C)C[C@H](O)[C@H]2O[C@@](O)(C(=O)C(=O)N3CCCC[C@H]3C(=O)O[C@H](/C(C)=C/[C@@H]3CC[C@@H](O)[C@H](OC)C3)[C@H](C)[C@@H](O)CC1=O)[C@H](C)C[C@@H]2OC [15-O-desmethyl-FK520]
[1]
  block of R4/FKBP12 co-immunoprecipitation: able to block R4/FKBP12 co-immunoprecipitation
Mullerian duct; 1 μM macrolide alone, no MIS
  Mullerian duct regression: no regression activity was detected
Mullerian duct; 1 μM macrolide together with 1 μg MIS
  Mullerian duct regression grade (0 no regression to 5 complete regression): 5 grade
Mullerian duct; 1 μM macrolide with 0.1 μg MIS, compared with 1 μg MIS alone
  regression activity of 0.1 μg MIS in presence of macrolide: more biological activity than 1 μg MIS alone
Mv1Lu cells [2]; 1 μM alone, no TGF-β
  gene activation response, macrolide alone: Neither of the responses were detected
Mv1Lu cells [2]; [8]
  TGF-β gene activation response (luciferase activity): greatly enhanced
Mv1Lu cells [3]; 1 μM alone, no TGF-β
  growth inhibition response, macrolide alone: Neither of the responses were detected
Mv1Lu cells [3]; [8]
  TGF-β growth inhibition response (decrease in cell number): greatly enhanced
FKBP12
  affinity for FKBP12: binds with high affinity
[4]
  toxicity in animal models: do not induce toxicity

## C=CC[C@@H]1/C=C(\C)C[C@H](C)C[C@H](OC)[C@H]2O[C@@](O)(C(=O)C(=O)N3CCCC[C@H]3C(=O)O[C@H](/C(C)=C/[C@@H]3CC[C@@H](O)[C@H](OC)C3)[C@H](C)[C@@H](O)CC1=O)[C@H](C)C[C@@H]2OC [FK506]
Mv1Lu cells [3]
  growth inhibition, macrolide alone: exhibited growth inhibition activities
FKBP12
  affinity for FKBP12: bind strongly
[5]
  competition for binding of R4C to FKBP12: could partially compete
[6]
  binding to FKBP12 D37G: abolishes FKBP12 binding
[7]
  binding to FKBP12 (G89P, 190K): without affecting

## CC[C@@H]1/C=C(\C)C(O)[C@H](C)C[C@H](OC)[C@H]2O[C@@](O)(C(=O)C(=O)N3CCCC[C@H]3C(=O)O[C@H](/C(C)=C/[C@@H]3CC[C@@H](O)[C@H](OC)C3)[C@H](C)[C@@H](O)CC1=O)[C@H](C)C[C@@H]2OC (stereo partly drawn) [L685,818]
[1]; 50 nM, COS cells, FIG. 4A lane 3
  block of R4 interaction with FKBP12: block R4 interaction with FKBP12
[1]
  block of R4/FKBP12 co-immunoprecipitation: able to block R4/FKBP12 co-immunoprecipitation
Mullerian duct; 500 nM macrolide alone
  Mullerian duct regression grade: 1 Grade
Mullerian duct; 500 nM macrolide together with 2 μg MIS
  Mullerian duct regression: complete regression
FKBP12
  affinity for FKBP12: binds with high affinity
[4]
  toxicity in animal models: do not induce toxicity

## CO[C@H]1C[C@@H]2CC[C@@H](C)[C@@](O)(O2)C(=O)C(=O)N2CCCC[C@H]2C(=O)O[C@H]([C@H](C)C[C@@H]2CC[C@@H](O)[C@H](OC)C2)CC(=O)[C@H](C)/C=C(\C)[C@@H](O)[C@@H](OC)C(=O)[C@H](C)C[C@H](C)/C=C/C=C/C=C/1C [rapamycin]
Mv1Lu cells [3]
  growth inhibition, macrolide alone: exhibited growth inhibition activities
FKBP12
  affinity for FKBP12: bind strongly
[6]
  binding to FKBP12 D37G: abolishes FKBP12 binding
